Measured values reported in BindingDB's records for doi:10.7270/Q27D2X8F (n/a, 1993).

How the values were obtained:
[1] = biological target: T1, 5-hydroxytryptamine receptor 1A (Homo sapiens, UniProt P08908); test: The compound was evaluated for its ability to displace [3H]-8-OH-DPAT from 5-hydroxytryptamine 1A receptor in cellular brain membranes
T1 sequence (P08908 whole entry): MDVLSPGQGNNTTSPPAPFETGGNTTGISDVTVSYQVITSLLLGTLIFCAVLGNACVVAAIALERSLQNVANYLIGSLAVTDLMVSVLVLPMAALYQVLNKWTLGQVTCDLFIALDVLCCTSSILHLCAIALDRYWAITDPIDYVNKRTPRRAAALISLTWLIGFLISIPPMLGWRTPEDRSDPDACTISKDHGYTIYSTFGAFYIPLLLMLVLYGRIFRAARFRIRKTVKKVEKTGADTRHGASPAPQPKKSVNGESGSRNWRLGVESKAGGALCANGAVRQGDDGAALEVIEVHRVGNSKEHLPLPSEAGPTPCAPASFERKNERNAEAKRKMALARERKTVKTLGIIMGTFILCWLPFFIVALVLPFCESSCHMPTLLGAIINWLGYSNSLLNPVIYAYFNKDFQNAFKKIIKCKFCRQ

[2] = biological target: 5-hydroxytryptamine receptor 1B (Homo sapiens, UniProt P28222); test: The compound was evaluated for its ability to displace [3H]5-HT from 5-hydroxytryptamine 1B receptor in cellular brain membranes
[3] = biological target: Serotonin 2 (5-HT2) receptor (Homo sapiens, UniProt P28223+P28335+P41595); test: The compound was evaluated for its ability to displace [3H]ketanserin from 5-hydroxytryptamine 2 receptor in cellular brain membranes
Sequence of Serotonin 2 (5-HT2) receptor (P28223 whole entry): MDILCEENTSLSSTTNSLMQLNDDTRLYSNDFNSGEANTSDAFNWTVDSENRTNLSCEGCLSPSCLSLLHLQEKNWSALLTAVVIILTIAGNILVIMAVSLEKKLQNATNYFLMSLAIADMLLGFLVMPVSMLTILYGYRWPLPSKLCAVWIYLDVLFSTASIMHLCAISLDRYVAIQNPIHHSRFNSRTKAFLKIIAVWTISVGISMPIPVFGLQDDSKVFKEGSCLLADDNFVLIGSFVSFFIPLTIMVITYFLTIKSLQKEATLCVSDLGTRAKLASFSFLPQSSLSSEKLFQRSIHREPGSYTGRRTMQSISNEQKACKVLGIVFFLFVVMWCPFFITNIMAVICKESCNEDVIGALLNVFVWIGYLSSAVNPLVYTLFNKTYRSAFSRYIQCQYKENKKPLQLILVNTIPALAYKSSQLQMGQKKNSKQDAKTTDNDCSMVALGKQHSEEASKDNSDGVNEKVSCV
Sequence of Serotonin 2 (5-HT2) receptor (P41595 whole entry): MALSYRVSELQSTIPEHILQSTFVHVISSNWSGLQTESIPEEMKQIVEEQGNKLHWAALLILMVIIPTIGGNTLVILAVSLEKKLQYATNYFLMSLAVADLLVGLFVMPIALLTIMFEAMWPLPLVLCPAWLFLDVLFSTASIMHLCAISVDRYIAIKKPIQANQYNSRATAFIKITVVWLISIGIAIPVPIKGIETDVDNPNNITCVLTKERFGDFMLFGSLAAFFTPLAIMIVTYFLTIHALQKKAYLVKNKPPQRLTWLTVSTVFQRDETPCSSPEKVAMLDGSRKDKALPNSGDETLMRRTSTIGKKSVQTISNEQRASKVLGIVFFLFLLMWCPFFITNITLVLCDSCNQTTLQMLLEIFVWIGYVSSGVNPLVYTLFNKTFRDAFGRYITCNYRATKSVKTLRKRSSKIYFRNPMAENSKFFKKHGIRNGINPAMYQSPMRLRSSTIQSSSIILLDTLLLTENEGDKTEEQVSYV
Sequence of Serotonin 2 (5-HT2) receptor (P28335 whole entry): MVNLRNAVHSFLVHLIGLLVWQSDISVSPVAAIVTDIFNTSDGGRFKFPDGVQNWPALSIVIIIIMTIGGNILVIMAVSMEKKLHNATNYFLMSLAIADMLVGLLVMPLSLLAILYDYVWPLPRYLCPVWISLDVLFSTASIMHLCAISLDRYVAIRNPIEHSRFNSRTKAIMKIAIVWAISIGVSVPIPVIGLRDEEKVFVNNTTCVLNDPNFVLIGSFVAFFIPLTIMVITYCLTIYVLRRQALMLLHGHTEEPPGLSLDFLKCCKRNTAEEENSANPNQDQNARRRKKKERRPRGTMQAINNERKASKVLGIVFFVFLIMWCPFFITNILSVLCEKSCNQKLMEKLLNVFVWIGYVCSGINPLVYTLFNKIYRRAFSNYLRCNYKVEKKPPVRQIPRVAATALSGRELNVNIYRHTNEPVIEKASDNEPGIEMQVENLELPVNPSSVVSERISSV

Sequence of 5-hydroxytryptamine receptor 1B (P28222 whole entry): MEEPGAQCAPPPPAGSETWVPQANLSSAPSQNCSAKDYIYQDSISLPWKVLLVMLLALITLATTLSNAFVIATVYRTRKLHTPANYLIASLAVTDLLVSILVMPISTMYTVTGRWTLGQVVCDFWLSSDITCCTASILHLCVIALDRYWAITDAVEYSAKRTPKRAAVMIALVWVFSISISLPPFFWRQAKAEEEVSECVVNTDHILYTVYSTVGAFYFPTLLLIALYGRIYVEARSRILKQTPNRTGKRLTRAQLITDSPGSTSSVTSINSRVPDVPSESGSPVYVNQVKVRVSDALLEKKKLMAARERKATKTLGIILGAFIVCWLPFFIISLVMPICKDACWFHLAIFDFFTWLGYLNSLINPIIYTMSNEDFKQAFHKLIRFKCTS

Row | SMILES | IC50 [1] [nM] | IC50 [2] [nM] | IC50 [3] [nM]
1 | CCCN(CCCCNC(=O)c1cc(=O)oc2c3c4c(cc12)CCCN4CCC3)C1COc2cccc(OC)c2C1 (stereo not given) | 0.3 | 9 | 15
2 | CCCN(CCCCNc1ccc([N+](=O)[O-])c2nonc12)C1COc2cccc(OC)c2C1 (stereo not given) | 100 | 340 | 18000
3 | CCCN(CCCCN1C(=O)c2ccccc2S1(=O)=O)C1COc2cccc(OC)c2C1 (stereo not given) [2-{4-[(5-Methoxy-chroman-3-yl)-propyl-amino]-butyl}-1,1-dioxo-1,2-dihydro-1lambda*6*-benzo[d]isothiazol-3-one; compound with oxalic acid] | 1 | 1000 | 10000
4 | CCCN(CCCCN1C(=O)c2ccccc2C1=O)C1COc2cccc(OC)c2C1 (stereo not given) [2-{4-[(5-Methoxy-chroman-3-yl)-propyl-amino]-butyl}-isoindole-1,3-dione; compound with oxalic acid] | 50 | 400 | 30000
5 | CCCN(CCCCN1C(=O)CC2(CCCC2)CC1=O)C1COc2cccc(OC)c2C1 (stereo not given) [NSC_121851] | 0.2 | 5000 | 10
